Molecules are shown by their SMILES.

The target in assay [1] is T1, CCR-3 (Homo sapiens, UniProt P51677).
T1 sequence (P51677 1-355): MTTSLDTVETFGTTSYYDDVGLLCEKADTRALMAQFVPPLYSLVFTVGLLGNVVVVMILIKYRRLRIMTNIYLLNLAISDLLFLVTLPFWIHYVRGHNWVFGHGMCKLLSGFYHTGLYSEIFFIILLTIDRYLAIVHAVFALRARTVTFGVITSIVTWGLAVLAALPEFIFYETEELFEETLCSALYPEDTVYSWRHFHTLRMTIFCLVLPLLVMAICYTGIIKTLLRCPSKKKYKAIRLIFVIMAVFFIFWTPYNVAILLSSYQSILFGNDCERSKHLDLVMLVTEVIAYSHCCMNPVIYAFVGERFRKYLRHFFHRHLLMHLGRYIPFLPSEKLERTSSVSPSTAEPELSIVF
In words: Calcium mobilization assay (inhibition of eotaxin-induced intracellular calcium mobilization in CCR3/HEK293 cells). In kind it is cell-based. Details: expressed in transfected cells. The settings on record: eotaxin 10 nM; for Ca^2+ mobilization 6.25 µg/ml (inhibition %): 6.25 µg/ml test compound, CCR3/HEK293 cells (Table 2a); for Ca^2+ mobilization 1.25 µg/ml (inhibition %): 1.25 µg/ml test compound, CCR3/HEK293 cells (Table 2b). The protocol: Compounds 93-162 used in this assay were synthesized by using the method described in Example 6.
CCR-3 transfectant cells (CCR3/HEK293) were isolated and resuspended with assay buffer (20 mM HEPES, 125 mM NaCl, 5 mM KCl; 0.5 mM glucose, 1 mM CaCl2, 1 mM MgCl2, 0.1 % BSA). After washing CCR3/HEK293 cells with assay buffer, cells were loaded with Fura-2/AM in assay buffer for 1 hour at room temperature. Cells were washed and resuspended with assay buffer at 5 x 10^6 cells/ml in assay buffer, and placed in a tissue culture plate (Falcon, no. 3296). Test compounds dissolved in DMSO were added to the wells, followed by eotaxin (10 nM at final concentration). Cells were excited at 340 nm and 380 nm in a fluorimeter (ARGUS50, FDSS2000, Hamamatsu Photonics) and the relative ratio of the fluorescence emitted at 510 nm was recorded. For a control, DMSO without a test compound was added. Intracellular calcium mobilization was calculated as described in Krogel C. et al. , FEBS Let. (1989) 243 , 41-46.

For assay [2], the target named is T1, CCR-3. As to the kind of experiment: Eotaxin-induced chemotaxis of CCR-3 transfectant cells (CCR3/U937). The arrangement: expressed in transfected cells; host or cells: U937. As to conditions: test compound 0.1 µg/ml; eotaxin 1 x 10^-9 M; CCR3/U937 transfectants; 37 °C, 1 hour. In kind it is cell-based.

Consider `CCN(CCCNC(=O)Nc1ccc(Cl)c(C(F)(F)F)c1)C1CCCc2ccccc21` (stereo not shown) [Compound 93], for which the “Ca^2+ mobilization 6.25 µg/ml (inhibition %)” value on CCR-3 [1] amounted to 50%.
Same read-out and setting: with `CSCCCN(CCCNC(=O)Nc1ccc(Cl)c(C(F)(F)F)c1)Cc1ccc2c(c1)OCO2` [Compound 94] the figure was 50%.
Same read-out and setting: with `CC(C)CN(CCCNC(=O)Nc1ccc(Cl)c(C(F)(F)F)c1)CCc1ccccc1` [Compound 95] the figure was 55%; with `COc1ccc(CCN(CCCNC(=O)Nc2ccc(Cl)c(C(F)(F)F)c2)CC(C)C)cc1OC` [Compound 96], 53%.
Still for that read-out and setting: with `O=C(NCCCN(C[C@@H]1CCCN1)C1CCCc2ccccc21)Nc1ccccc1-c1ccccc1` (stereo partly shown) [Compound 98] the figure was 51%; with `O=C(O)CCCN(CCCNC(=O)Nc1ccccc1-c1ccccc1)Cc1ccc2c(c1)OCO2` [Compound 101], 63%; with `COc1cc(CN(CCCNC(=O)Nc2ccccc2-c2ccccc2)CCCSC)cc(OC)c1OC` [Compound 103], 53%.
As to `CSCCCN(CCCNC(=O)Nc1ccccc1-c1ccccc1)CCc1ccccc1` [Compound 105], on CCR-3 [1], the “Ca^2+ mobilization 6.25 µg/ml (inhibition %)” value came out at 53%.
The same measure, in the same setting: with `CC(C)CN(CCCNC(=O)Nc1ccccc1-c1ccccc1)CCC(c1ccccc1)c1ccccc1` [Compound 117] the figure was 55%.
Still for that read-out and setting: with `O=C(NCCCN(CCOCc1ccccc1)C1CCCc2ccccc21)Nc1ccc(Br)cc1` (stereo not shown) [Compound 123] the figure was 53%; with `CSCCCN(CCCNC(=O)Nc1ccc(Br)cc1)C1CCCc2ccccc21` (stereo not shown) [Compound 124], 55%.
Still for that read-out and setting: with `O=C(NCCCN(CCOCc1ccccc1)Cc1ccc2c(c1)OCO2)Nc1ccc(Br)cc1` [Compound 127] the figure was 59%; with `CC(C)CN(CCCNC(=O)Nc1ccc(Br)cc1)Cc1ccc(C(F)(F)F)cc1` [Compound 129], 50%.
For the compound `CSCCCN(CCCNC(=O)Nc1ccc(Br)cc1)Cc1ccc(C(F)(F)F)cc1` [Compound 130], the “Ca^2+ mobilization 6.25 µg/ml (inhibition %)” value at CCR-3 [1] amounted to 51%.
Same read-out and setting: with `COc1cc(CN(CCCNC(=O)Nc2ccc(Br)cc2)CCC(C)C)cc(OC)c1OC` [Compound 131] the figure was 52%; with `O=C(NCCCN(CCc1ccc(Cl)c(Cl)c1)C[C@@H]1CCCN1)Nc1ccc(Br)cc1` [Compound 134], 59%; with `COc1ccc(CCN(CCCNC(=O)Nc2cccc(C)c2)CCCSC)cc1OC` [Compound 139], 65%.
On the same count and under the same terms, with `COc1ccc(CCN(CCCNC(=O)Nc2cccc(C)c2)CCCC(=O)O)cc1OC` [Compound 140] the figure was 54%; with `CSCCCN(CCCNC(=O)Nc1cccc(C)c1)CCc1ccc(C)cc1` [Compound 141], 53%; with `CSCCCN(CCCNC(=O)Nc1cccc(C)c1)CCc1ccc(Cl)c(Cl)c1` [Compound 142], 58%.
The same measure, in the same setting: with `Cc1cccc(NC(=O)NCCCN(CCc2ccc(Cl)c(Cl)c2)C[C@@H]2CCCN2)c1` [Compound 143] the figure was 64%; with `O=C(NCCCN(CCc1ccccc1)Cc1ccco1)Nc1cccc(Cl)c1` [Compound 144], 51%; with `CC(C)CCN(CCCNC(=O)Nc1cccc(Cl)c1)Cc1cccs1` [Compound 145], 53%.
Consider `CCOC(=O)C1CC1CN(CCCNC(=O)Nc1cccc(Cl)c1)Cc1cccs1` (stereo not shown) [Compound 146], for which the “Ca^2+ mobilization 6.25 µg/ml (inhibition %)” value on CCR-3 [1] came to 52%.
The same measure, in the same setting: with `O=C(NCCCN(CCc1c[nH]cn1)CC1CCCCC1)Nc1cccc(Cl)c1` [Compound 147] the figure was 51%; with `O=C(NCCCN(CCOCc1ccccc1)CCc1c[nH]cn1)Nc1cccc(Cl)c1` [Compound 148], 57%.
On the same count and under the same terms, with `O=C(NCCCN(C[C@@H]1CCCN1)C1CCCc2ccccc21)Nc1cccc(Cl)c1` (stereo partly shown) [Compound 150] the figure was 70%; with `Cc1ccc(CCN(CCCNC(=O)Nc2cccc(Cl)c2)CC(C)C)cc1` [Compound 151], 54%; with `Cc1ccc(CCN(CCCNC(=O)Nc2cccc(Cl)c2)CCOCc2ccccc2)cc1` [Compound 152], 54%.
With `CCOC(=O)C1CC1CN(CCCNC(=O)Nc1cccc(Cl)c1)CCc1ccc(C)cc1` (stereo not shown) [Compound 153], the “Ca^2+ mobilization 6.25 µg/ml (inhibition %)” value on CCR-3 [1] amounted to 59%.
Take `O=C(NCCCN(CCc1ccc(Cl)c(Cl)c1)CC1CCCCC1)Nc1cccc(Cl)c1` [Compound 154]: the “Ca^2+ mobilization 6.25 µg/ml (inhibition %)” value at CCR-3 [1] is recorded as 55%.
On the same count and under the same terms, with `COC(=O)CCCN(CCCNC(=O)Nc1cccc(Cl)c1)CCc1ccc(Cl)c(Cl)c1` [Compound 156] the figure was 63%.
Still for that read-out and setting: with `COc1ccc(NC(=O)NCCCN(CCCSC)C2CCCc3ccccc32)c(OC)c1` (stereo not shown) [Compound 157] the figure was 53%; with `COc1ccc(NC(=O)NCCCN(CCCSC)CCc2ccc(Cl)c(Cl)c2)c(OC)c1` [Compound 158], 50%; with `COc1ccc(NC(=O)NCCCN(CCOCc2ccccc2)CCc2ccc(OC)c(OC)c2)cc1` [Compound 159], 51%.
On to `COC(=O)CCCN(CCCNC(=O)Nc1ccc(Cl)c(Cl)c1)Cc1ccc2c(c1)OCO2` [Compound 160], for which, on CCR-3 [1], the “Ca^2+ mobilization 6.25 µg/ml (inhibition %)” value turned out to be 58%.
The same measure, in the same setting: with `O=C(O)CCCN(CCCNC(=O)Nc1cccc2ccccc12)Cc1ccc(C(F)(F)F)cc1` [Compound 161] the figure was 51%; with `CCOC(=O)C1CC1CN(CCCNC(=O)Nc1cccc2ccccc12)CCc1ccccc1` (stereo not shown) [Compound 162], 50%.
In the case of `CC[N+](CCCNC(=O)Nc1ccc(C#N)cc1)(CCOCCOC)CCc1cccc(Cl)c1.[I-]` (stereo not shown) [Compound 394, [3-(4-Cyanophenylureido)propyl][2-(3-chlorophenyl)ethyl][2-(2-methoxyehtoxy)ethyl] ethylammonium iodide], the “Ca^2+ mobilization 1.25 µg/ml (inhibition %)” value at CCR-3 [1] turned out to be 76%.
Same read-out and setting: with `CC[N+](CCCNC(=O)Nc1ccc(OC)cc1)(CCOCCOC)CCc1cccc(Cl)c1.[I-]` (stereo not shown) [Compound 438, [3-(4-Methoxyphenylureido)propyl][2-(3-chlorophenyl)ethyl][2-(2-methoxyehtoxy)ethyl] ethylammonium iodide] the figure was 70%.
Still for that read-out and setting: with `CC[N+](CCCNC(=O)Nc1ccc(Cl)c(Cl)c1)(CCOCCOC)CCc1ccc(Cl)cc1.[I-]` (stereo not shown) [compound 355] the figure was 63%; with `CC[N+](CCCNC(=O)Nc1ccc(Cl)c(Cl)c1)(CCOCCOC)CCc1cccc(Cl)c1.[I-]` (stereo not shown) [compound 356], 57%.
With `CC[N+](CCCNC(=O)Nc1ccc(Cl)c(Cl)c1)(CCOCCOC)CCc1ccc(Cl)cc1Cl.[I-]` (stereo not shown) [compound 357], the “Ca^2+ mobilization 1.25 µg/ml (inhibition %)” value on CCR-3 [1] was determined as 57%.
For the compound `CC[N+](CCCNC(=O)Nc1ccc(Cl)c(Cl)c1)(CCOCCOC)CCc1ccc(Cl)c(Cl)c1.[I-]` (stereo not shown) [compound 358], the “Ca^2+ mobilization 1.25 µg/ml (inhibition %)” value on CCR-3 [1] is listed as 63%.
As for `CC[N+](CCF)(CCCNC(=O)Nc1ccccc1)CCc1ccc(Cl)c(Cl)c1.[I-]` (stereo not shown) [compound 434], the “Chemotaxis Assay 0.1 µg/ml (inhibition %)” value at CCR-3 [2] is recorded as 100%.
Same read-out and setting: with `CC[N+](CCCNC(=O)Nc1ccc(OC)cc1)(CCOCCOC)CCc1cccc(F)c1.[I-]` (stereo not shown) [compound 439] the figure was 51%; with `CCC(CC)C[N+](CC)(CCCNC(=O)Nc1ccc(OC)cc1)CCc1cccc(Cl)c1.[I-]` (stereo not shown) [compound 448], 82%.
The same measure, in the same setting: with `CCC(CC)C[N+](CC)(CCCNC(=O)Nc1ccc(OC)cc1)CCc1ccc(Cl)c(Cl)c1.[I-]` (stereo not shown) [compound 449] the figure was 96%; with `CCC(CC)C[N+](CC)(CCCNC(=O)Nc1ccc(OC)cc1)CCc1cccc(F)c1.[I-]` (stereo not shown) [compound 450], 35%.
The same measure, in the same setting: with `CC[N+](CCF)(CCCNC(=O)Nc1ccc(OC)cc1)CCc1cccc(Cl)c1.[I-]` (stereo not shown) [compound 451] the figure was 92%.
As to `CC[N+](CCF)(CCCNC(=O)Nc1ccc(OC)cc1)CCc1ccc(Cl)cc1Cl.[I-]` (stereo not shown) [compound 452], the “Chemotaxis Assay 0.1 µg/ml (inhibition %)” value at CCR-3 [2] is 59%.
With `CC[N+](CCF)(CCCNC(=O)Nc1ccc(OC)cc1)CCc1ccc(Cl)c(Cl)c1.[I-]` (stereo not shown) [compound 453], the “Chemotaxis Assay 0.1 µg/ml (inhibition %)” value at CCR-3 [2] was 87%.

The record behind these values is patent EP1200395B1, “UREA DERIVATIVES AS INHIBITORS OF CCR-3 RECEPTOR” (KIRIN BEER KABUSHIKI KAISHA, priority 1999, dated 2001).
